Source: patent US20250352512A2, “C4-S[…] DERIVATIVES AND METHODS OF USING” (priority 2022, published 2025)
Read-outs that look alike come from different tables or passages of the source.

How the values were obtained:
[1] = target: T1, ADRA1A (Homo sapiens, UniProt P35348); assay: cell-based
T1 sequence (P35348 1-466): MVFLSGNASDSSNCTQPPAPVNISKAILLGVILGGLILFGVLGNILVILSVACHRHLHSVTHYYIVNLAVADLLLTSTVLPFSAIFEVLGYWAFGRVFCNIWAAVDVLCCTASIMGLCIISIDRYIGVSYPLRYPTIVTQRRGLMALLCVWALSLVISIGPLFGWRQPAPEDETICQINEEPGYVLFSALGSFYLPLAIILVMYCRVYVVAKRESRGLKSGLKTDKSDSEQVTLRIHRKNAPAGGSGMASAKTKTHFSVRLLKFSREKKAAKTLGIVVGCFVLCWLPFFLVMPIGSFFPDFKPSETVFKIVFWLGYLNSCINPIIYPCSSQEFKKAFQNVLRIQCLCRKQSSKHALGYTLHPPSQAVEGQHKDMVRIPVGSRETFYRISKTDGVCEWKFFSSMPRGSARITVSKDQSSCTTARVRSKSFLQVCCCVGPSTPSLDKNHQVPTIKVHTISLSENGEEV

[2] = target: T1, ADRA1A; assay: cell-based; remark: listed apart in the source
[3] = target: T2, DRD1 (Homo sapiens, UniProt P21728); assay: cell-based
T2 sequence (P21728 whole entry): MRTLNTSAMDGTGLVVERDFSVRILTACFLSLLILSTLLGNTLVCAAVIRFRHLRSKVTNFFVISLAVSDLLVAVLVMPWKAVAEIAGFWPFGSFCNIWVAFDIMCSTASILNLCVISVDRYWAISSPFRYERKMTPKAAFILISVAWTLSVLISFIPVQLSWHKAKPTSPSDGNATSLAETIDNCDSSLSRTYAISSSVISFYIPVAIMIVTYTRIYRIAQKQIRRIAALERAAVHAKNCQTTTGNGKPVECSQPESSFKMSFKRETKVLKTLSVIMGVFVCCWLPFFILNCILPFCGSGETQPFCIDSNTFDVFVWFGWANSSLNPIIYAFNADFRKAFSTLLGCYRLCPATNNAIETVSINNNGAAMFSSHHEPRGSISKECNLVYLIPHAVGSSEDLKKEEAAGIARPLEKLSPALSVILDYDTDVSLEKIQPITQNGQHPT

[4] = target: T2, DRD1; assay: cell-based; remark: listed apart in the source
[5] = target: T3, HTR1A (5-HT1A) (Homo sapiens, UniProt P08908); assay: cell-based
T3 sequence (P08908 1-422): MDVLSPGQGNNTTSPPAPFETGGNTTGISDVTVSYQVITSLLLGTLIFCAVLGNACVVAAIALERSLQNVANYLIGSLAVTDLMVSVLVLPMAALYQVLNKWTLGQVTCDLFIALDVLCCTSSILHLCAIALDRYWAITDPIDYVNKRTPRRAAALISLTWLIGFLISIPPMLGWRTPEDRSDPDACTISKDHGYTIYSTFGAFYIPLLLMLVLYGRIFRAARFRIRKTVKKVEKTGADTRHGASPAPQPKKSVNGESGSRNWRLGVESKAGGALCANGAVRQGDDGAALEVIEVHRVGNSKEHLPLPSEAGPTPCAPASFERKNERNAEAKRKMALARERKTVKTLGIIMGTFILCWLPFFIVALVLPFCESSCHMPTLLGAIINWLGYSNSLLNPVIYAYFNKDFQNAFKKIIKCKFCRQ

[6] = target: T3, HTR1A (5-HT1A); assay: cell-based; remark: listed apart in the source
[7] = target: HTR1B (5-HTR1B) (Homo sapiens, UniProt P28222); assay: cell-based
Sequence of HTR1B (5-HTR1B) (P28222 whole entry): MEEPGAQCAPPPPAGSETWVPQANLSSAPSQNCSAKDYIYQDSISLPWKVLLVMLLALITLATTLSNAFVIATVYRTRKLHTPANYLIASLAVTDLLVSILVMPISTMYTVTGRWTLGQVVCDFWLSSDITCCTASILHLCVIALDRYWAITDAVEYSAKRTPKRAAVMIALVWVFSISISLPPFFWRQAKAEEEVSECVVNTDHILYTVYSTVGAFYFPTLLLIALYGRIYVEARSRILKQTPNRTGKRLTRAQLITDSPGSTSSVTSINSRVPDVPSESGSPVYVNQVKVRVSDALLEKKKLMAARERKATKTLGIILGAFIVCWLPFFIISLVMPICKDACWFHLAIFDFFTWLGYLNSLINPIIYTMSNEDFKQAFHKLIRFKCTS

[8] = target: HTR2A (Homo sapiens, UniProt P28223); assay: cell-based
Sequence of HTR2A (P28223 whole entry): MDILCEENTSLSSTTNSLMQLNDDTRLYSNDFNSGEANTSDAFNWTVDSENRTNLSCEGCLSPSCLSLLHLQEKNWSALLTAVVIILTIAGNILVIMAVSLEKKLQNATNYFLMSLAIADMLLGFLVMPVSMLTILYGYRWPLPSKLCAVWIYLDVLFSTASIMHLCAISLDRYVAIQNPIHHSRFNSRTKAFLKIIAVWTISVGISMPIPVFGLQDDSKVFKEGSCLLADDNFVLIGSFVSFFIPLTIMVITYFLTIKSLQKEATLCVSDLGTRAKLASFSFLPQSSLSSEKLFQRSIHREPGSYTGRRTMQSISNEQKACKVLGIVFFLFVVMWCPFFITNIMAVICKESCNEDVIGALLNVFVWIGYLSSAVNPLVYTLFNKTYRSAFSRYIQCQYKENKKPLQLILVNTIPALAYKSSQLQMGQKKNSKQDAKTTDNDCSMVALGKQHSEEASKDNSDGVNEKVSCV

[9] = target: HTR2B (5-HT2B) (Homo sapiens, UniProt P41595); assay: cell-based
Sequence of HTR2B (5-HT2B) (P41595 whole entry): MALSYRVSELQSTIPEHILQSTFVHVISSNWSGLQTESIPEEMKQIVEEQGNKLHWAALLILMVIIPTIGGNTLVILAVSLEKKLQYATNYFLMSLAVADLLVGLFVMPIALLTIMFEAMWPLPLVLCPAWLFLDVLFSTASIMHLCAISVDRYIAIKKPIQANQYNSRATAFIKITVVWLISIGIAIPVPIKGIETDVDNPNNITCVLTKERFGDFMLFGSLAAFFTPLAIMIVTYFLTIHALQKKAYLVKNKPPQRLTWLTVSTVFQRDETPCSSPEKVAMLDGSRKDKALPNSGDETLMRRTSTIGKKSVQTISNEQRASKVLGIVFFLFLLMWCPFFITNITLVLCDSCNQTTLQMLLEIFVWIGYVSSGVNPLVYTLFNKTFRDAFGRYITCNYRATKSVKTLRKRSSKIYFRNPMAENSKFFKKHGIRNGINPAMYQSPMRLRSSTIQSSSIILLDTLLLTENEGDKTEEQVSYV

[10] = target: T4, HTR3A (5-HT3A) (Homo sapiens, UniProt P46098); assay: cell-based
T4 sequence (P46098 24-478): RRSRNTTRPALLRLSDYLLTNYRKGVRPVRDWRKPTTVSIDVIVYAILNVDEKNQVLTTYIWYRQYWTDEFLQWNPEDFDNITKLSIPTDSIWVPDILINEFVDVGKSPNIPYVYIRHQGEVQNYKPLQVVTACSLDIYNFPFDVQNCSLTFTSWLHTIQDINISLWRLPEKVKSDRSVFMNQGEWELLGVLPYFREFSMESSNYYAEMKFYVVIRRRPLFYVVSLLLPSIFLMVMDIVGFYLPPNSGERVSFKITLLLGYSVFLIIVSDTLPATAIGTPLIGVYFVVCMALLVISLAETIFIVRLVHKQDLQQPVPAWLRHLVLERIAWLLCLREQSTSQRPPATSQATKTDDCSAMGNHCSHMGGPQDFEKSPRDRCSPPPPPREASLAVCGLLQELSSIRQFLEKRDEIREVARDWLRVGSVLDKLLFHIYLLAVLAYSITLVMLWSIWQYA

[11] = target: T5, MAO-A (Homo sapiens, UniProt P21397); assay: biochemical
T5 construct: purchased Sigma
T5 sequence (P21397 1-527): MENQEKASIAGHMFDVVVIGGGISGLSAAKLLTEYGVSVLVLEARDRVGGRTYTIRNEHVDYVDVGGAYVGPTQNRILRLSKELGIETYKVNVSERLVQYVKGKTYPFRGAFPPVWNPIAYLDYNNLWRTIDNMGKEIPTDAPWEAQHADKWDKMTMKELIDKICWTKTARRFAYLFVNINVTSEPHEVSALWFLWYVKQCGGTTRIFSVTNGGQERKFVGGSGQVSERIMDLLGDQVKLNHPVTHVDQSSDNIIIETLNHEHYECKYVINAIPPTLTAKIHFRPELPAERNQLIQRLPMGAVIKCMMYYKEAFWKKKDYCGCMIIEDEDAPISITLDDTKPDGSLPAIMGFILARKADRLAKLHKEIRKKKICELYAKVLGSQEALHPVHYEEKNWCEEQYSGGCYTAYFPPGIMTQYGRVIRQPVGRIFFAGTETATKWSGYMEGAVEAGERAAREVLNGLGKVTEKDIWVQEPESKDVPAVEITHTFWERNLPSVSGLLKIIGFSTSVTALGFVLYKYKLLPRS

[12] = target: NET (Homo sapiens, UniProt P23975); assay: cell-based
Sequence of NET (P23975 whole entry): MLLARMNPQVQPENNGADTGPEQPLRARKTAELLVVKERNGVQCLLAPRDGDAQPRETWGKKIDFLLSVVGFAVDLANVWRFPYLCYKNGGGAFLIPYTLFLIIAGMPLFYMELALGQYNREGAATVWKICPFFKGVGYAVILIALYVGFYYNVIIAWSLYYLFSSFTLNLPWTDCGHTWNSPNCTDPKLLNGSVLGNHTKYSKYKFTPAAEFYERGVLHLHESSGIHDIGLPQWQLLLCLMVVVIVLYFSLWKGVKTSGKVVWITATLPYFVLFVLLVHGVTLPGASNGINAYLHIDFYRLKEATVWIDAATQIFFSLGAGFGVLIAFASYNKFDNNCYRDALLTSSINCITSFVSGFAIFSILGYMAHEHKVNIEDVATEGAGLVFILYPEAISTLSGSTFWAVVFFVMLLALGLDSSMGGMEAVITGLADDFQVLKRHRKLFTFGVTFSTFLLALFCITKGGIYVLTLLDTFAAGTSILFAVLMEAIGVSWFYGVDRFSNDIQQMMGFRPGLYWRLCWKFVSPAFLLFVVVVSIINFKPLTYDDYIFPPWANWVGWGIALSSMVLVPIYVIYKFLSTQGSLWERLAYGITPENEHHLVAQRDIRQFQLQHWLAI

[13] = target: NMDAR (Homo sapiens, UniProt Q05586+Q13224); assay: cell-based
Sequence of NMDAR (Q13224 27-1484, other chains not shown): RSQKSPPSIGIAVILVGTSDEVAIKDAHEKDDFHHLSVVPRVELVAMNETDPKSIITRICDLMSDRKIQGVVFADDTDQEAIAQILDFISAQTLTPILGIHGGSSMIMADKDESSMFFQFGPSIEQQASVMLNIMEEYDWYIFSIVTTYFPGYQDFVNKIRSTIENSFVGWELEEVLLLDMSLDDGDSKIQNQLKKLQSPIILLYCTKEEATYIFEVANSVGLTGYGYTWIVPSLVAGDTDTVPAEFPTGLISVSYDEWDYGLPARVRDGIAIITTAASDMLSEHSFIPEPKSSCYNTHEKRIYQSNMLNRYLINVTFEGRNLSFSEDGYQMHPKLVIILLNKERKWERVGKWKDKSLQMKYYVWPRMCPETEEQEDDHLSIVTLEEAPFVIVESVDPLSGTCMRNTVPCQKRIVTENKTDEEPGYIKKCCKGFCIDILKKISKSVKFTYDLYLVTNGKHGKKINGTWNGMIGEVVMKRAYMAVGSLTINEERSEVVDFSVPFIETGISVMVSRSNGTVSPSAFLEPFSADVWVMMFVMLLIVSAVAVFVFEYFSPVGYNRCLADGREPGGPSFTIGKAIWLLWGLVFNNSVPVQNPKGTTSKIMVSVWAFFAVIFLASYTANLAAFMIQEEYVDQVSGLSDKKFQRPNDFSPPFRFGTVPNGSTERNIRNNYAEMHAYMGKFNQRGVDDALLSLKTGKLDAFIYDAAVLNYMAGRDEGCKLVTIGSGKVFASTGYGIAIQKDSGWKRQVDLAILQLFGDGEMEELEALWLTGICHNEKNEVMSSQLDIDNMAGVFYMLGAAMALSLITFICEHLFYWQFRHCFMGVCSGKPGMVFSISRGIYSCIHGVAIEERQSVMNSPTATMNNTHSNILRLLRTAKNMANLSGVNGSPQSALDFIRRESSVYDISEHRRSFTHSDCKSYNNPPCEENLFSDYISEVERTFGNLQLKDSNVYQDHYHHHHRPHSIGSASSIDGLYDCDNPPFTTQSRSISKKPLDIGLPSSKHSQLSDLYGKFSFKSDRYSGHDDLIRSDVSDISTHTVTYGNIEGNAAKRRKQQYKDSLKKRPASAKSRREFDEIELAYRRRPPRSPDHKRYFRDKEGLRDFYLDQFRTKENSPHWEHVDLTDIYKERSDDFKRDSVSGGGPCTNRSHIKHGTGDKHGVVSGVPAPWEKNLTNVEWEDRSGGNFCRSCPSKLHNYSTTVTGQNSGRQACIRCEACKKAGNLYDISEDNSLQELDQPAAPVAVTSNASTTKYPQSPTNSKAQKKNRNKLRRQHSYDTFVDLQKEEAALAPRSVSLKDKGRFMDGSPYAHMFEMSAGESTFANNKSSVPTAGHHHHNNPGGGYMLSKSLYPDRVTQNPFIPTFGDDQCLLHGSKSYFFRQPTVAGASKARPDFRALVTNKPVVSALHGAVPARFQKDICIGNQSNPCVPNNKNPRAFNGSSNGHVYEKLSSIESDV

[14] = ADRA1A, GPCR, AGN (agonist), read-out: EC50
[15] = ADRA1A, GPCR, ANT (antagonist), read-out: IC50
[16] = DRD1, GPCR, AGN (agonist), read-out: EC50
[17] = DRD1, GPCR, ANT (antagonist), read-out: IC50
[18] = HTR1A, GPCR, AGN (agonist), read-out: EC50
[19] = HTR1A, GPCR, ANT (antagonist), read-out: IC50
[20] = HTR1B, GPCR, ANT (antagonist), read-out: IC50
[21] = HTR2A, GPCR, AGN (agonist), read-out: EC50
[22] = HTR2B, GPCR, ANT (antagonist), read-out: IC50
[23] = HTR3A, ion channel, OP (opener), read-out: EC50
[24] = MAO-A, enzyme, IN (inhibitor), read-out: IC50
[25] = NET, transporter, BL (blocker), read-out: IC50
[26] = NMDAR, ion channel, BL (blocker), read-out: IC50

| Structure (SMILES) | EC50 [1, 14] [µM] | IC50 [2, 15] [µM] | EC50 [3, 16] [µM] | IC50 [4, 17] [µM] | EC50 [5, 18] [µM] | IC50 [6, 19] [µM] | IC50 [7, 20] [µM] | EC50 [8, 21] [µM] | IC50 [9, 22] [µM] | EC50 [10, 23] [µM] | IC50 [11, 24] [µM] | IC50 [12, 25] [µM] | IC50 [13, 26] [µM] | also measured |
| --- | --- | --- | --- | --- | --- | --- | --- | --- | --- | --- | --- | --- | --- | --- |
| CCCC(=O)OCOc1cccc2[nH]cc(CCN(C)C)c12 [D(IV)] | > 100 | 12.9 | > 100 | 49.5 | 18 | > 100 | > 100 | > 100 | 0.512 | > 100 | > 100 | > 100 | > 100 | – |
| CN(C)Cc1c[nH]c2cccc(O[Si](C)(C)C(C)(C)C)c12 [A(IV)] | > 100 | 18.5 | > 100 | 10.9 | 4.46 | > 100 | > 100 | 34 | 0.814 | > 100 | 54.6 | > 100 | 12.1 | – |
| CN(C)CCc1c[nH]c2cccc(OC(=O)OCc3ccccc3)c12 [B(II)] | – | – | – | – | – | – | – | > 100 | – | – | – | – | – | EC50 [1]: > 100 µM; IC50 [2]: 3.66 µM; EC50 [3]: > 100 µM; IC50 [4]: 5.39 µM; EC50 [5]: 13.6 µM; IC50 [6]: > 100 µM; IC50 [7]: > 100 µM; IC50 [9]: 0.281 µM; EC50 [10]: > 100 µM; IC50 [11]: 21.9 µM; IC50 [12]: 26.5 µM; IC50 [13]: 16 µM |
| CN(C)CCc1c[nH]c2cccc(OC(=O)OCC3CC3)c12 [B(III)] | > 100 | 12.6 | > 100 | 13.3 | 7.45 | > 100 | > 100 | > 100 | 0.0215 | > 100 | > 100 | > 100 | > 100 | – |
| CC(C)[Si](Oc1cccc2[nH]cc(CN(C)C)c12)(C(C)C)C(C)C [A(V)] | > 100 | 19.6 | > 100 | 9.67 | 10.7 | > 100 | > 100 | > 100 | 3.14 | > 100 | 48.8 | 18.9 | 10.1 | – |
| CN(C)CCc1c[nH]c2cccc(OP(=O)(Oc3ccccc3)Oc3ccccc3)c12 [F(I)] | – | – | – | – | – | – | – | – | – | – | – | – | – | EC50 [1]: > 100 µM; IC50 [2]: 14.8 µM; EC50 [3]: > 100 µM; IC50 [4]: 6.98 µM; EC50 [5]: 6.36 µM; IC50 [6]: > 100 µM; IC50 [7]: > 100 µM; EC50 [8]: > 100 µM; IC50 [9]: 0.127 µM; EC50 [10]: > 100 µM; IC50 [11]: 50.9 µM; IC50 [12]: 41.8 µM; IC50 [13]: > 100 µM |
| CCCCC(=O)OCOc1cccc2[nH]cc(CCN(C)C)c12 [D(III)] | > 100 | 3.86 | > 100 | 32.2 | 28.7 | > 100 | > 100 | > 100 | 0.301 | > 100 | > 100 | > 100 | > 100 | – |
| CC(C)OC(=O)OCOc1cccc2c1c(CCN(C)C)cn2COC(=O)OC(C)C [D(XIII)] | > 100 | > 100 | > 100 | > 100 | > 100 | > 100 | > 100 | > 100 | 5.14 | > 100 | > 100 | > 100 | > 100 | – |
